From patent publication US10238614B2, “Uses of 6-aminohexanoic acid to manage bleeding conditions” (EMORY UNIVERSITY, priority 2013, dated 2019)

Assays:
[1] = tested on: thrombocytopenic patients with hematological malignancies; test: Retrospective study of prophylactic oral EACA in outpatients with chronic transfusion-dependent thrombocytopenia; assay type: in vivo, human
Text: Patients were managed in the outpatient setting despite their severe thrombocytopenia and received EACA as a substitution for prophylactic, threshold directed platelet transfusion.
Patients with chronic transfusion dependent thrombocytopenia who received prophylactic EACA in the outpatient setting were identified through a computerized database search. After initiation of EACA, prophylactic threshold-driven platelet transfusion was discontinued and patients received only therapeutic platelet transfusion in case of bleeding, except when admitted to the inpatient ward. In the inpatient ward, prophylactic platelets were routinely infused when platelets were <10×10^9/L. The number of platelets transfused in the hospital in the absence of bleeding was censored. Patient demographics, diagnosis, treatment, platelet counts, duration of thrombocytopenia, transfusion history, bleeding and outcomes were captured onto study-specific case report forms. Bleeding was captured regardless of patient's location (out-patient or wards) and retrospectively scored based on the ITP WHO classification: grade 1=petechial bleed, grade 2=clinically mild blood loss, grade 3=gross blood loss requiring transfusion, and grade 4=retinal, cerebral, or debilitating blood loss. Statistics were descriptive.
Patients were monitored in the outpatient clinic, with a CBC obtained at least once a week.

[2] = tested on: patients with thrombocytopenic hemorrhage / severely thrombocytopenic patients with hematological malignancies; conditions: cited from earlier work
[3] = ITP WHO bleeding classification grade, median (range)
[4] = severe and refractory thrombocytopenic patients not receiving prophylactic platelet transfusion

## NCCCCCC(=O)O [EACA, 6-aminohexanoic acid]
[1]; 1 gram orally twice daily, median 47 days
  tolerability: overall well tolerated
[1]; 18 of 44 patients
  patients who discontinued EACA due to platelet recovery: 41%
[1]; 44 patients
  discontinuation due to intolerance: no patients discontinued EACA due to intolerance
  venous thromboembolic event: No patient experienced a venous thromboembolic event
[1]; 44 patients, EACA 1 gram orally twice daily, no prophylactic platelet transfusions, 7/44
  patients who received platelet transfusions while on EACA: 16%
[1]; [3]
  median bleeding score for the 19 minor bleeding events: 1 (1-2)
  median score for the 10 bleeding episodes treated with transfusion: 2 (2-4)
[1]; eleven of 44 patients
  patients with minor mucocutaneous bleeding that resolved spontaneously and did not require platelet transfusions: 25%
[1]; hematochezia from a pre-existing rectal ulcer
  patients with grade 3 bleeding: 1 patient
[1]; in 7/44 patients while on EACA
  bleeding episodes treated with platelet transfusions: 10
[1]; in eleven patients, epistaxis, bruises, oral, vaginal
  episodes of minor mucocutaneous bleeding that resolved spontaneously: 19 episodes
[1]; in the other 5 patients: hemorrhoid, epistaxis, oral, bladder and vaginal
  grade 2 mucocutaneous bleeds requiring transfusion: 8
[1]; in the setting of a trauma and from a pre-existing condition
  grade 3-4 bleedings: Two
[1]; median platelet counts 8×10^9/L, no prophylactic platelet transfusions, median 47 days, up to 209 days
  major spontaneous bleeds: no major spontaneous bleeds were observed
[1]; of the 10 platelet refractory patients, mucocutaneous (3 grade 1, 5 grade 2 and 1 grade 3)
  platelet refractory patients with bleeding episodes: 4
[1]; one of 44 patients
  patients who discontinued EACA due to the onset of hematuria: 2%
[1]; [4]
  overall safety: safe
  risk of major spontaneous bleeding: low risk of major spontaneous bleeding
[1]; shortly after initiation of EACA
  patient-reported effect on petechiae and subcutaneous bleeds: rapid disappearance of petechiae and resolution of subcutaneous bleeds
[1]; summary statement, 16% of patients transfused
  median platelet transfusions in transfused patients: 4 units
[1]; the 7 transfused patients, median (range)
  median number of platelets transfusions received to treat bleeding episodes: 4 (range, 1-8)
[1]; traumatic intracranial hemorrhage secondary to motor vehicle accident
  patients with grade 4 bleeding: 1 patient
[2]; patients with thrombocytopenic hemorrhage, Kalmadi et al., Cancer 2006
  effect on transfusion requirements: reduces transfusion requirements
[2]; severely thrombocytopenic patients with hematological malignancies, Antun et al., Cancer 2013
  effect on bleeding: prevents bleeding
